We go through six compounds from patent US20170334852A1, “CATIONIC LIPID” (Eisai R&D Management Co., Ltd., priority 2014, published 2017).

A short description of data set [1]: Particle diameter after mixing, PBS dialysis and storage at 4° C., analysis (9). It counts as physicochemical. The settings on record: storage period, compared to the composition of Comparative Example 3. On the procedure:
In the compositions of Examples 53 and 54 and Comparative Example 3, the particle diameter (Z-average and polydispersity index) was measured immediately after the lipid complex was generated by mixing the siRNA diluent and the lipid solution in the preparation of each composition, after the lipid complex was dialyzed into PBS, and after storage in the sealed vial at 4° C. for 2 months and 6 months, using a particle diameter-measuring device (trade name “Zetasizer Nano ZS”, manufactured by Malvern Instruments Ltd.).

A short description of data set [2]: Particle diameter on storage in sealed vial at 4° C., analysis (7). In kind it is physicochemical. Particulars: lipid complex stored for a certain period. On the procedure: In the compositions of Examples 46 to 52, each composition was stored in a sealed vial at 4° C. and the particle diameter (Z-average and polydispersity index) before the strorage, after 3 months from the storage and after 6 months from the storage was measured in the same manner as that for the composition of Example 29.

For the compound `CCCCCCCCCCC(CCCCCCCCC(=O)OCC(CCCC)CCCCCC)OC(=O)C1CCN(C)CC1` (centres unmarked) [YS-120, 1-((2-butyloctyl)oxy)-1-oxoicosane-10-yl-1-methylpiperidine-4-carboxylate], the “Increase in particle diameter of the lipid complex during storage (in words)” value (shortened to “Increase in particle diameter”) is on record as “an increase in particle diameter of the lipid complex was suppressed” in data set [1] and “stability is high” in data set [2]. In the case of `CCCCC/C=C\C(CCCC)COC(=O)CCCCCCCCC(CCCCCCCCCC)OC(=O)C1CCN(C)CC1` (centres unmarked) [YS-122, (Z)-1-((2-butylnon-3-en-1-yl)oxy)-1-oxoicosane-10-yl-1-methylpiperidine-4-carboxylate], in data set [2], the “Increase in particle diameter” value is given as “stability is high”. With `CCCCCCCCCCC(CCCCCCCCC(=O)OC/C=C\CC(CCC)CCCC)OC(=O)C1CCN(C)CC1` (centres unmarked) [YS-123, (Z)-1-oxo-1-((5-propylnon-2-en-1-yl)oxy)icosane-10-yl-1-methylpiperidine-4-carboxylate], in data set [2], the “Increase in particle diameter” value was “stability is high”. Consider `CCCCCCCCCCC(CCCCCCCCC(=O)OCCC(CCCCC)CCCCC)OC(=O)C1CCN(C)CC1` (centres unmarked) [YS-124, 1-oxo-1-((3-pentyloctyl)oxy)icosane-10-yl-1-methylpiperidine-4-carboxylate], for which the entries for the “Increase in particle diameter” value in data set [1] and in data set [2] were “an increase in particle diameter of the lipid complex was suppressed” and “stability is high”, respectively. In the case of `CCCCCCCCCCC(CCCCCCCCC(=O)OCC(CCC)CC(CCC)CCC)OC(=O)C1CCN(C)CC1` (centres unmarked) [YS-125, 1-((2,4-dipropylheptyl)oxy)-1-oxoicosane-10-yl-1-methylpiperidine-4-carboxylate], in data set [2], the “Increase in particle diameter” value was “stability is high”. On the same count and under the same terms, under `CCCCCCCCCCC(CCCCCCCCC(=O)OCCC(CCC)C(CCC)CCC)OC(=O)C1CCN(C)CC1` (centres unmarked) [YS-126, 1-((3,4-dipropylheptyl)oxy)-1-oxoicosane-10-yl-1-methylpiperidine-4-carboxylate] stands “stability is high”.
